Measurements as given in patent US4292305A, “Antiallergic imidodisulfamides” (SmithKline Corporation, priority 1980, dated 1981).

Test system: slow reacting substance of anaphylaxis (SRS-A)
Assay: Inhibition of SRS-A induced contraction of guinea pig ileum
Assay type: cell-based
Conditions: Cavia porcellus, 0.25 h, partially purified SRS-A from guinea pig lung at 40 μg/ml, isolated guinea pig ileum, read-out: antagonism of SRS-A
Protocol: The SRS-A antagonist activity of the compounds of this invention is measured by the ability of the active medicament to inhibit SRS-A induced contraction of guinea pig ileum. In this test system, sections of ileum are resected from guinea pigs and placed in 5 ml. tissue baths containing a modified Tyrode's solution. One end of the tissue is fixed to a glass tissue holder, the other is connected to a force-displacement transducer and the tissue is placed under a tension of 500 mg. Isometric tissue contractions are recorded on a six channel polygraph. Baths are constantly aerated with 95% O2 -5% CO2. After a 20 minute stabilization period a concentration of the appropriate agonist which provides a contraction height of 60-80% of the maximum obtainable to that agonist (as determined from full sequential concentration--response curves in separate experiments) is added to the tissue bath and the response recorded. The procedure is repeated until reproducible responses are obtained. […] Percent inhibition produced by the test compound is calculated by substracting the mean percentage change in control tissue from the mean percentage change in tissues exposed to the test compound. Additional compounds are then evaluated as long as the tissue remains reproducibly responsive to the agonist. […]

| Compound | inhibition at 50 µM (test compound 5×10^-5 M) [%] | inhibition at 10 µM (test compound 1×10^-5 M) [%] |
| --- | --- | --- |
| O=S(=O)(Nc1ccc(Br)cc1)NS(=O)(=O)Nc1ccc(Br)cc1 [1,5-di-(4-bromophenyl)-imidodisulfamide] | 47 |  |
| O=S(=O)(NCCCCc1ccccc1)NS(=O)(=O)NCCCCc1ccccc1 [1,5-di-(4-phenylbutyl)-imidodisulfamide] |  | 40 |
